Reference: article PMC12867150, “A fungi-derived cyclic peptide enhances Th9-mediated antitumor immunity by targeting ZAP70 and SREBP1” (The Journal of Clinical Investigation, 2025)
Where “and” joins values, the source holds several entries; their conditions need not be identical. Equal entries are not always repeated.

Columns and labels:
Type in all cases: cell-based, mouse
Th9 cells [1] = assay: Seahorse extracellular acidification rate, glycolysis stress test (Figure 4B-D); design: basal glycolysis of seahorse extracellular flux: unit not given here
Experimental: After stimulation, cells were washed, resuspended in Seahorse XF assay medium (Agilent Technologies; pH 7.40–7.45, catalog 103576-100) and seeded at 5 × 10^5 cells per well in Seahorse XF96 microplates. Plates were centrifuged at 400 × g for 5 minutes to promote adherence and monolayer formation, and all conditions were tested in quadruplicate.
Glycolytic activity was measured on a Seahorse XFe96 Extracellular Flux Analyzer (Agilent Technologies) using the XFe96 Glycolysis Stress Test kit (Agilent Technologies, catalog 103020-100) per the manufacturer’s instructions. Sequential injections of glucose (10 mM), oligomycin (1 μM), and 2-deoxyglucose (2-DG; 50 mM) were administered to determine ECAR as a proxy for glycolytic function. A glycolytic index was calculated from ECAR values obtained before and after each injection.

[2] = system: AKT, mTOR, and NF-κB signaling components; assay: Immunoblot of AKT, mTOR and NF-κB components (S7D); settings: result in words
Experimental: Detailed lysis conditions, SDS–PAGE and transfer procedures, primary/secondary antibodies (including clones and catalog numbers), molecular weight markers, ECL detection, and ImageJ (NIH) quantification are described in Supplemental Methods.
MH9A4, Biolegend, Cat. No. 507605, PE/Cy7, clone MH9A4, Biolegend, Cat. No. […]
clone Mab11, Biolegend, Cat. No. 502908), Perforin (APC, clone dG9, Biolegend, Cat.
Flow cytometric acquisition was performed using a BD Fortessa or Cytek Aurora cytometer. Data were analyzed with FlowJo software (v10.8.1 or newer). Fluorescence compensation, isotype-matched controls, and fluorescence-minus-one (FMO) controls were applied as appropriate for multicolor panel validation.
Cells were washed twice with PBS and lysed in 1 × lysis buffer (NCM, Cat. No.
WB3100) supplemented with a protease inhibitor cocktail (Solarbio, Cat. No. P1260).
Protein lysates were separated by SDS-polyacrylamide gel electrophoresis (SDS-PA G E ; YEASEN, Cat. No. 20325ES62) and transferred to PVDF membranes for […]
Membranes were probed with the following primary antibodies: ERK1/2 (clone […]
BioLegend, Cat. No. 369502), MEK1/2 (clone L38C12, Cell Signaling Technology, Cat.
No. 4694S), phospho -MEK1/2 (clone 41G9, Cell Signaling Technology, Cat. No. […]
(Proteintech, Cat. No. 10745 -1-AP), Total Akt (Cell Signaling Technolo gy, Cat. No. […]

Th9 cells [3] = assay: IL-9+ Th9 cells with MEK or ERK inhibition (Figure 5H); settings: for IL-9 (flow cytometric quantification): Figure 5H, individual replicates, (n = 5)
Experimental: (A) Identification and ranking of EpA-interacting proteins by affinity pulldown and LC-MS/MS, ordered by in silico binding energy predictions. […] (E) Flow-cytometric analysis of phosphorylated ZAP70 in Th9 cells 10 minutes after TCR activation (mean ± SEM, n = 3). (F) Pathway enrichment analysis of RNA-seq data showing MAPK/ERK-related pathways in EpA-treated Th9 cells. (G) Immunoblot analysis of total and phosphorylated MEK1/2 and ERK1/2 in control and EpA-treated Th9 cells. (H–L) Functional consequences of MEK or ERK inhibition in EpA-treated Th9 cells. […] Data in H–K are shown as mean ± SEM (n = 5) and in L as mean ± SEM (n = 3). Statistical significance was determined using 1-way ANOVA followed by Tukey’s test (E, H–L). *P < 0.05, **P < 0.01, ***P < 0.001, ****P < 0.0001.
T cell polarization was initiated under plate-bound anti-CD3 (2 μg/mL, clone 17A2, BioXCell, catalog BE0002) and soluble anti-CD28 (1 μg/mL, clone 37.51, BioXCell, catalog BE0015-1) stimulation, with the addition of cytokines and neutralizing antibodies specific to each subset. For Th9 cells, these included IL-4 (10 ng/mL, Peprotech, catalog 400-04), TGF-β (1 ng/mL, EPOTO Biotech, catalog HF-2021), anti–IL-12 (5 μg/mL, clone C17.8, BioXCell, catalog BE0051), and anti–IFN-γ (10 μg/mL, clone XMG1.2, BioXCell, catalog BE0055); for Th1 cells, these included IL-12 (10 ng/mL, GenScript, catalog Z03211-50) and anti–IL-4 (5 μg/mL, clone 11B11, BioXCell, catalog BE0045); for Th2 cells, these included IL-4 (50 ng/mL), anti–IFN-γ (20 μg /mL), anti–IL-12 (5 μg/mL), Th17 cells: IL-6 (20 ng/mL, EPOTO Biotech, catalog MF-1006), TGF-β (1 ng/mL), IL-1β (10 ng/mL, Peprotech, catalog AF-211-11B), anti–IFN-γ (10 μg/mL), anti–IL-12 (5 μg/mL), and anti–IL-4 (5 μg/mL); and for Tregs, these included TGF-β (3 ng/mL). After 3 days of initial culture, cells were either collected for downstream assays or continued in extended culture with refreshed cytokines to maintain lineage commitment.
The following pharmacological inhibitors were used at the indicated final concentrations: trametinib (MEK1/2 inhibitor; Selleck, catalog S4484) at 10 nM; temuterkib (ERK1/2 inhibitor; MCE, catalog HY-101494) at 100 nM; and fatostatin hydrobromide (SREBP inhibitor; MCE, catalog HY-14452A) at 5 μM. Dead cells were detected using Fixable Viability Dye eFluor 780 (eBioscience, catalog 65-0865).

[4] = EpA 10 μM, 4 days, result in words

anteiso-C15 Leu7 surfactin [EpA]
basal and maximal ECAR (Th9 cells [1]; [4]): significantly elevated
extracellular acidification rate (ECAR) (Th9 cells [1]; [4]): marked increase
basal glycolysis of seahorse extracellular flux (Th9 cells [1]; Figure 4C, individual replicates, n = 6): 3.18 and 3.13 and 4.92 and 4.79 and 3.98 and 4.85
max glycolytic capacity of seahorse extracellular flux (Th9 cells [1]; Figure 4D, individual replicates, n = 6, in mpH/min (unit assumed)): 34.82 and 36.26 and 48.55 and 43.93 and 34.44 and 51.9
AKT and NF-κB component phosphorylation [2]: not of AKT or NF-κB components
total and phosphorylated mTOR levels [2]: remained unchanged
IL-9 (flow cytometric quantification) (Th9 cells [3]; EpA + ERKin combination): 5.8 and 5.06 and 4.72 and 7.22 and 6.36
IL-9 (flow cytometric quantification) (Th9 cells [3]; EpA + MEKin combination): 0.49 and 3.03 and 0.46 and 0.71 and 0.77
IL-9 (flow cytometric quantification) (Th9 cells [3]; single agent): 50.6 and 51.1 and 72.2 and 66.2 and 42.3
IL-9 production (Th9 cells [3]; trametinib 10 nM, temuterkib 100 nM, result in words): unable to restore it
